Results reported in ChEMBL document CHEMBL2385010, “Discovery of aryl ureas and aryl amides as potent and selective histamine H3 receptor antagonists for the treatment of obesity (part I)” (Bioorg Med Chem Lett, 2013).
Converted amounts (≈) assume the structure as drawn.

Assays:
[1] = target: Histamine H1 receptor (Homo sapiens) (UniProt P35367); experiment: Antagonist activity at human histamine H1 receptor assessed as inhibition of calcium mobilization at 10 uM by FLIPR assay relative to control; type: functional
Chain of Histamine H1 receptor (Homo sapiens) (P35367 whole entry): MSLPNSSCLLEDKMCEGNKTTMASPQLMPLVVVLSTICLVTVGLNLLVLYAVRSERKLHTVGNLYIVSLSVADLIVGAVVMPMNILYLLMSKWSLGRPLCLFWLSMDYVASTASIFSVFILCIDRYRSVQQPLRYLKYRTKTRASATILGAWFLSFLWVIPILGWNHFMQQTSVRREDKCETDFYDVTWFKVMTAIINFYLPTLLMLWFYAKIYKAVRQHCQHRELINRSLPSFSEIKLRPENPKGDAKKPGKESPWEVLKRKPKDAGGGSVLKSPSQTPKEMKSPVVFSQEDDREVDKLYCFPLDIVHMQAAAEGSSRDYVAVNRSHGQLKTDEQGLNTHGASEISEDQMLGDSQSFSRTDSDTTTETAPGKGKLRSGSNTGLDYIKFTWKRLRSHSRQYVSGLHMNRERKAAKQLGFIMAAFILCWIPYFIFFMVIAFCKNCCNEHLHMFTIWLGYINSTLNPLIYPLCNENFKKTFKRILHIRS

[2] = target: Histamine H2 receptor (Homo sapiens) (UniProt P25021); experiment: Antagonist activity at human histamine H2 receptor assessed as inhibition of calcium mobilization at 10 uM by FLIPR assay relative to control; type: functional
Chain of Histamine H2 receptor (Homo sapiens) (P25021 whole entry): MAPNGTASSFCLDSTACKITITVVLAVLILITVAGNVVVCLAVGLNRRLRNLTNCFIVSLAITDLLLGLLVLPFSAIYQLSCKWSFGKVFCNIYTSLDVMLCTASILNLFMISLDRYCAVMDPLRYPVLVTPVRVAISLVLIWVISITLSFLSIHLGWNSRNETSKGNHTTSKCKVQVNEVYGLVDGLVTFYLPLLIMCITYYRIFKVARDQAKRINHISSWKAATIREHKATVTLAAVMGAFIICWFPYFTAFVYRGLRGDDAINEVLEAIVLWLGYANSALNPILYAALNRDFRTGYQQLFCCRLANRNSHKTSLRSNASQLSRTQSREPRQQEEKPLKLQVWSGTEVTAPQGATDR

Histamine H3 receptor [3] = target: T1, Histamine H3 receptor (Homo sapiens, UniProt Q9Y5N1); experiment: Antagonist activity at human histamine H3 receptor expressed in HEK293 cells assessed as inhibition of calcium mobilization by FLIPR assay; type: functional, cell-based
T1 sequence (Q9Y5N1 whole entry): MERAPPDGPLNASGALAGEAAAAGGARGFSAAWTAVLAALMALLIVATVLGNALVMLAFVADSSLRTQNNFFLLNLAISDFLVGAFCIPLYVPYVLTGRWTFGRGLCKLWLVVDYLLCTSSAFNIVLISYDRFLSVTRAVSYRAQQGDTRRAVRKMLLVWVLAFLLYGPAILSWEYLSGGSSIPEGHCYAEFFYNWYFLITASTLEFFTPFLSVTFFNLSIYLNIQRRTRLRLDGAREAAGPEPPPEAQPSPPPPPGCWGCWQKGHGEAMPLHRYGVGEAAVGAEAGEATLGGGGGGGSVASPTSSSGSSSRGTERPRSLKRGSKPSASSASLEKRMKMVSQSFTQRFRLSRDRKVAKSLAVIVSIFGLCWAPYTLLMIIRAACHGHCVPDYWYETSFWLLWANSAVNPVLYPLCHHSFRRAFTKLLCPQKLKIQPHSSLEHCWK

[4] = target: Melanin-concentrating hormone receptor 1 (Homo sapiens) (UniProt Q99705); experiment: Antagonist activity at human MCH1R assessed as inhibition of calcium mobilization at 10 uM by FLIPR assay relative to control; type: functional
Chain of Melanin-concentrating hormone receptor 1 (Homo sapiens) (Q99705 whole entry): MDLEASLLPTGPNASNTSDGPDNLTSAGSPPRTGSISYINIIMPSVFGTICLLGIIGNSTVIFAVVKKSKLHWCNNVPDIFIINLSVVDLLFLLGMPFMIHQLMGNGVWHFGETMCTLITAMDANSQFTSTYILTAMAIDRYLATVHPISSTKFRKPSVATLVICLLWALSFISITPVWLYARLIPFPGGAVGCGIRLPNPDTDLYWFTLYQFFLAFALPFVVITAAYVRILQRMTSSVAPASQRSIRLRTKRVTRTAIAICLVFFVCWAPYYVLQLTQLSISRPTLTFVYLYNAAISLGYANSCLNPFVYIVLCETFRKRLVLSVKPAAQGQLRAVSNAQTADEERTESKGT

Histamine H3 receptor [5] = target: T1, Histamine H3 receptor; experiment: Antagonist activity at human histamine H3 receptor in human T-REx-293 cells assessed as inhibition of basal GTPgammaS binding at 10 uM after 90 mins by scintillation counting analysis relative to control; type: functional, cell-based; conditions: HEK293
hERG (KCNH2) = hERG (KCNH2) (Homo sapiens, UniProt Q12809); experiment: Inhibition of human ERG at 10 uM relative to control
Chain of hERG (KCNH2) (Q12809 whole entry): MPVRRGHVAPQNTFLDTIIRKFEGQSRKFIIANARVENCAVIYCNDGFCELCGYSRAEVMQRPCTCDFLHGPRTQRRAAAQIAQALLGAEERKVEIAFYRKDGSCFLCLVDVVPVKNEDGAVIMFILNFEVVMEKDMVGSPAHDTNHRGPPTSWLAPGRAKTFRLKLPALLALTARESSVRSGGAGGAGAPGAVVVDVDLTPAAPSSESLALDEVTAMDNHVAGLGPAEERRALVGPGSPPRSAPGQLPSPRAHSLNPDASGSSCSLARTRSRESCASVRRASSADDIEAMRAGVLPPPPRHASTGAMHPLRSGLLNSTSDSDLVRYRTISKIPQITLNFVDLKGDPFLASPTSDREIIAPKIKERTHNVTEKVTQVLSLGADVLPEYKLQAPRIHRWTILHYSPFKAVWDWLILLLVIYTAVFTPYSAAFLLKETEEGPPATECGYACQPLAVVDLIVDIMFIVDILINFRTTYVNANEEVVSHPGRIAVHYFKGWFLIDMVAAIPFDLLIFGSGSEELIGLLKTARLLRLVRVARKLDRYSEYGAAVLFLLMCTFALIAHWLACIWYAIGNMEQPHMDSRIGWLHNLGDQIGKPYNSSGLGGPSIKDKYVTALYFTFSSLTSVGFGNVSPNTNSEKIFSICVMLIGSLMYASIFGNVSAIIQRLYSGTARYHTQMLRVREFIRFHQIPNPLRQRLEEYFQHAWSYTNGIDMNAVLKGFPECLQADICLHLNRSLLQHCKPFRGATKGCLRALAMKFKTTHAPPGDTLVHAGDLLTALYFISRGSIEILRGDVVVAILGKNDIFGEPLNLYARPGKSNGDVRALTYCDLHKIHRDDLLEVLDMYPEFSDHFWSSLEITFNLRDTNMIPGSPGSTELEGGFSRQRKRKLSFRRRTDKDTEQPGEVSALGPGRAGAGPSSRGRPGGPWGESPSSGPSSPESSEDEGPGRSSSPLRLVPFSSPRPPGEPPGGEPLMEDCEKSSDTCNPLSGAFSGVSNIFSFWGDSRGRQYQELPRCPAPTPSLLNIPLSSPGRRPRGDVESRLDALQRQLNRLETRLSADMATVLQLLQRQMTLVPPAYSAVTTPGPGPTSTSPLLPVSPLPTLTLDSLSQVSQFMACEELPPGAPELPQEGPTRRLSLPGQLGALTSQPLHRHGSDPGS

[6] = Solubility of the compound; type: physicochemical
Histamine receptor H3 = Histamine receptor H3 (Macaca mulatta, UniProt Q865E1); experiment: Displacement of [3H]N-alpha-methylhistamine from cloned rhesus monkey histamine H3 receptor transfected in CHO cells after 1 hr by scintillation counting analysis; type: cell-based
Chain of Histamine receptor H3 (Q865E1 whole entry): as the sequence (Q9Y5N1 whole entry) above, with D148N, A240G, V282A, A289T, T290A, V300A, H442Q counted along it

Histamine H3 receptor [7] = target: Histamine H3 receptor (Rattus norvegicus, UniProt Q9QYN8); experiment: Displacement of [3H]N-alpha-methylhistamine from cloned rat histamine H3 receptor transfected in CHO cells after 1 hr by scintillation counting analysis; type: cell-based
Chain of Histamine H3 receptor (Rattus norvegicus, UniProt Q9QYN8) (Q9QYN8 whole entry): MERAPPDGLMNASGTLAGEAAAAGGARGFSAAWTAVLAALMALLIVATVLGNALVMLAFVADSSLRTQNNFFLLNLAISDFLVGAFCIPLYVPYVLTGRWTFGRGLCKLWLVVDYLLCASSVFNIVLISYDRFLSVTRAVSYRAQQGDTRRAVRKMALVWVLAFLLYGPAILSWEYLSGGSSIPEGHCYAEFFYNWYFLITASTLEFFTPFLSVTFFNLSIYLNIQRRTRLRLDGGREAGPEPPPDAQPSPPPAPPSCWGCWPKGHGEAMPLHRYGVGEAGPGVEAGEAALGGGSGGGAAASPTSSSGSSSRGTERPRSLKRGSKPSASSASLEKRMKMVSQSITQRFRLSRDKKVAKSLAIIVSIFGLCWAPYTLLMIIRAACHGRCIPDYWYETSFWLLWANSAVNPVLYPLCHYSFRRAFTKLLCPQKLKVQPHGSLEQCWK

[8] = Drug metabolism in human liver microsomes; type: ADME, Microsome; conditions: read-out: Drug metabolism
[9] = Drug metabolism in rat liver microsomes; type: ADME, Microsome; conditions: read-out: Drug metabolism
Histamine H3 receptor [10] = target: T1, Histamine H3 receptor; experiment: Displacement of [3H]N-alpha-methylhistamine from cloned human histamine H3 receptor transfected in CHO cells after 1 hr by scintillation counting analysis; type: cell-based
[11] = Drug metabolism in mouse liver microsomes; type: ADME, Microsome; conditions: read-out: Drug metabolism

| SMILES | inhibition [1] | inhibition [2] | IC50 (Histamine H3 receptor [3]) | inhibition [4] | inhibition (Histamine H3 receptor [5]) | further results |
| --- | --- | --- | --- | --- | --- | --- |
| Cc1cc(NC(=O)Nc2cc(Cl)cc(Cl)c2)ccc1N1CCC(N2CCCC2C)C1 (configuration not stated) | < 40% | < 40% | 3.1 nM | < 40% | 103% |  |
| Cc1cc(N2CCC(N3CCCC3C)C2)ccc1NC(=O)N1CCN(C)CC1 (configuration not stated) | < 40% | < 40% | 0.8 nM | < 40% | 120% |  |
| O=C(Nc1ccc(OCCN2CCCCC2)cc1)Nc1ccc(F)cc1F |  |  | 40.5 nM |  | 115% |  |
| Cc1cc(N2CCC(N3CCCC3C)C2)ccc1NC(=O)NC1CCCCC1 (configuration not stated) | < 40% | < 40% | 0.2 nM | < 40% | 110% |  |
| Cc1cc(N2CCC(N3CCCC3C)C2)ccc1NC(=O)Nc1cc(Cl)cc(Cl)c1 (configuration not stated) | < 40% | < 40% | 0.9 nM | < 40% | 126% | inhibition at 10 µM (hERG (KCNH2)): 74%; solubility [6]: 10.5 µg/mL (≈ 23.5 µM) |
| CC1CCCN1C1CCN(c2ccc(NC(=O)NCc3cc(Cl)cc(Cl)c3)cc2)C1 (configuration not stated) | < 40% | < 40% | 0.2 nM | < 40% | 144% | Ki (Histamine receptor H3): 7.1 nM |
| Cc1c(Cl)cc(NC(=O)Nc2ccc(OCCCN3CCCCC3)cc2)cc1Cl |  |  | 0.2 nM |  | 133% | Ki (Histamine H3 receptor [7]): 135 nM; metabolised [8]: 10%; metabolised [9]: 36%; Ki (Histamine receptor H3): 18.2 nM; solubility [6]: 6 µg/mL (≈ 13.7 µM); Ki (Histamine H3 receptor [10]): 112 nM; metabolised [11]: 34% |
| O=C(Nc1ccc(Cl)cc1)Nc1ccc(OCCCN2CCCCC2)cc1 |  |  | 0.7 nM |  | 119% |  |
| CCN(CC)CCCOc1ccc(NC(=O)Nc2ccc(F)cc2F)cc1 |  |  | 7.9 nM |  | 124% |  |
| CC(=O)N1CCN(C(=O)Nc2ccc(N3CCC(N4CCCC4C)C3)cc2)CC1 (configuration not stated) | < 40% | < 40% | 0.5 nM | < 40% | 127% |  |
| CN(C)CCOc1ccc(NC(=O)Nc2ccc(Cl)cc2)cc1 |  |  | 16.4 nM |  | 99% |  |
| CCN(CC)CCOc1ccc(NC(=O)Nc2ccc(Cl)cc2Cl)cc1 |  |  | 39.1 nM |  | 118% |  |
| CC1CCCN1C1CCN(c2ccc(NC(=O)NC3CCCCC3)cc2)C1 (configuration not stated) | < 40% | < 40% | 0.1 nM | < 40% | 122% |  |
| Cc1cccc(NC(=O)Nc2ccc(OCCCN(C)C)cc2)c1C |  |  | 14.7 nM |  | 125% |  |
| Cc1cc(NC(=O)Nc2ccc(Oc3ccccc3)cc2)ccc1N1CCC(N2CCCC2C)C1 (configuration not stated) | < 40% | < 40% | 0.6 nM | < 40% | 126% | Ki (Histamine receptor H3): 115 nM |
| Cc1cccc(NC(=O)Nc2ccc(OCCN(C)C)cc2)c1C |  |  | 73.1 nM |  | 94% |  |
| CCN(CC)CCOc1ccc(NC(=S)Nc2ccc(OCC(C)C)cc2)cc1 |  |  | 0.6 nM |  | 129% | Ki (Histamine H3 receptor [7]): 39.9 nM; Ki (Histamine receptor H3): 15.7 nM; Ki (Histamine H3 receptor [10]): 16.8 nM |
| CCOc1ccc(C)cc1NC(=O)Nc1ccc(OCCN(CC)CC)cc1 |  |  | 9.1 nM |  | 107% |  |
| CC1CCCN1C1CCN(c2ccc(NC(=O)Nc3ccc(Oc4ccccc4)cc3)cc2)C1 (configuration not stated) | < 40% | < 40% | 1.4 nM | < 40% | 113% | Ki (Histamine receptor H3): 46.8 nM |

| SMILES | inhibition [1] | inhibition [2] | IC50 (Histamine H3 receptor [3]) | inhibition [4] | inhibition (Histamine H3 receptor [5]) | further results |
| --- | --- | --- | --- | --- | --- | --- |
| CC1CCCN1C1CCN(c2ccc(NC(=O)N3CCN(c4ccccc4)CC3)cc2)C1 (configuration not stated) | < 40% | < 40% | 0.4 nM | < 40% | 122% |  |
| O=C(Nc1ccc(OCCCN2CCCCC2)cc1)Nc1cc(Cl)cc(Cl)c1 | < 40% | < 40% | 0.5 nM | < 40% | 125% | Ki (Histamine receptor H3): 3.4 nM |
| O=C(Nc1ccc(OCCCN2CCCCC2)cc1)Nc1ccc(F)cc1F |  |  | 0.5 nM |  | 128% | Ki (Histamine H3 receptor [7]): 33 nM; Ki (Histamine receptor H3): 3.4 nM; Ki (Histamine H3 receptor [10]): 52 nM |
| CC(=O)N(C)C1CCN(C(=O)Nc2ccc(N3CCC(N4CCCC4C)C3)cc2)C1 (configuration not stated) | < 40% | < 40% | 1.1 nM | < 40% | 109% |  |
| CCN(CC)CCOc1ccc(NC(=O)Nc2ccc(F)cc2F)cc1 |  |  | 111 nM |  | 117% |  |
| CC1CCCN1C1CCN(c2ccc(NC(=O)NCc3cccs3)cc2)C1 (configuration not stated) | < 40% | < 40% | 0.1 nM | < 40% | 129% | Ki (Histamine receptor H3): 1.9 nM |
| Cc1cc(NC(=O)NCc2cccs2)ccc1N1CCC(N2CCCC2C)C1 (configuration not stated) | < 40% | < 40% | 0.2 nM | < 40% | 125% |  |
| O=C(Nc1ccc(Cl)cc1)Nc1ccc(OCCN2CCCCC2)cc1 |  |  | 27.5 nM |  | 105% |  |
| CC(=O)N1CCN(C(=O)Nc2ccc(N3CCC(N4CCCC4C)C3)c(C)c2)CC1 (configuration not stated) | < 40% | < 40% | 2.3 nM | < 40% | 115% |  |
| CC(=O)N(C)C1CCN(C(=O)Nc2ccc(N3CCC(N4CCCC4C)C3)c(C)c2)C1 (configuration not stated) | < 40% | < 40% | 1.1 nM | < 40% | 118% |  |
| Cc1cc(NC(=O)NCc2cc(Cl)cc(Cl)c2)ccc1N1CCC(N2CCCC2C)C1 (configuration not stated) | < 40% | < 40% | 1.1 nM | < 40% | 130% |  |
| CC1CCCN1C1CCN(c2ccc(NC(=O)N3CCN(C)CC3)cc2)C1 (configuration not stated) | < 40% | < 40% | 0.2 nM | < 40% | 132% |  |
| CN(C)CCOc1ccc(NC(=O)Nc2ccc(F)cc2F)cc1 |  |  | 149 nM |  | 102% |  |
| CC1CCCN1C1CCN(c2ccc(NC(=O)Nc3cc(Cl)cc(Cl)c3)cc2)C1 (configuration not stated) | < 40% | < 40% | 1.2 nM | < 40% | 103% |  |
| Cc1cc(NC(=O)NC2CCCCC2)ccc1N1CCC(N2CCCC2C)C1 (configuration not stated) | < 40% | < 40% | 0.2 nM | < 40% | 130% |  |
| CC1CCCN1C1CCN(c2ccc(NC(=O)N3CCCCC3)cc2)C1 (configuration not stated) | < 40% | < 40% | 0.3 nM | < 40% | 108% |  |
| Cc1cc(NC(=O)N2CCN(C)CC2)ccc1N1CCC(N2CCCC2C)C1 (configuration not stated) | < 40% | < 40% | 1.1 nM | < 40% | 118% |  |
| CN(C)CCc1ccc(NC(=O)Nc2ccc(CCN(C)C)cc2)cc1 |  |  | 6.5 nM |  | 94.7% |  |
| CCN(CC)CCOc1ccc(NC(=O)Nc2c(Cl)cccc2Cl)cc1 |  |  | 1 nM |  | 116% |  |
